From patent US12492195B2, “Preparation method for and crystal form of 3-aryloxy-3-five-membered heteroaryl-propylamine compound” (Zhangzhou Pien Tze Huang Pharmaceutical Co., Ltd., priority 2020, dated 2025) come the findings set out here.

One assay concerns HepG2 cell. As to the kind of experiment: Cytotoxicity test (CCK-8), hepatotoxicity. Format: cell-based. The conditions noted are these: Homo sapiens, HepG2, 72 h. The method, then:
(§1) HepG-2 and SH-SY5Y cells were prepared and placed in a 10 cm dish and cultured in a cell incubator in 5% CO2 at 37° C. Trypsin was used to digest and cells were re-suspended and counted. The cells were transferred to 96-well plate with 8000 cells in a well (100 μl/well). The plate was cultured in a cell incubator for 24 h in 5% CO2 at 37° C. A serial of gradient concentration dilutions of compound with 2-fold dilution were prepared, and the system was 100 μL/well. The supernatant of cell culture system on the first day in the 96-well plate was removed, and fresh-prepared drug concentration system was added into culture plate wells containing cultured cells (duplicate wells were set). The cells were cultured in a cell incubator in 5% CO2 at 37° C. for 72 h. After the cell culture was completed, the supernatant of cell culture system was removed from 96-well plate, 100 μl of detection solution containing 10% CCK-8 medium was added into each well, and the cells were cultured in a cell incubator in 5% CO2 at 37° C. for 1 h and then taken out after time was up. Microplate reader was used to measure the absorbance at 450 nm. Data was processed to calculate cytotoxicity, and IC50 was calculated by GraphPad Prism. The cytotoxicity calculation formula was as follows: Cytotoxicity (%)=[A(0 Dosing)−A(Dosing)]/[A(0 Dosing)-A (Control)]×100 • A (Dosing): the absorbance of wells containing cells, CCK-8 solution and drug solution. • A (Control): the absorbance of wells containing medium and CCK-8 solution and without cells. • A (0 Dosing): the absorbance of wells containing cells and CCK-8 solution and without drug solution. Experimental Result

A further assay concerns SH-SY5Y. Kind of assay: Cytotoxicity test (CCK-8), neurotoxicity. The format is cell-based. The conditions noted are these: Homo sapiens, 72 h. The method, then:
as §1

For the next assay, the system named is C57BL/6 mice. Kind of assay: formalin pain model in mice. The format is in vivo. The note with it: for paw licking time: Phase II, 10-60 min; for analgesic effect (EDso) in phase II pain: intraperitoneal. The protocol: Before the start of experiment, the mice were allowed to adapt to the experimental environment for 72 h with free feeding and drinking water. The test drug was administrated by intraperitoneal injection at a dose of 20 mg/kg, and then the mice were placed in a transparent, ventilated plexiglass cylinder for 1 h, and then 20 μl of 4% formalin solution was injected into the left hind plantar of mice of each group by microinjector. The paw pain response of mice was real-time recorded by miniature camera. The frequency of lifting (1 score/time), shaking (2 score/time), and licking (3 score/time) the left paw and the time length of licking left paw were used as indicators of pain response, the cumulative scoring and licking time in two stages of 0-10 min (phase I, acute pain phase) and 10-60 min (phase II, inflammatory pain phase) were observed and recorded, and the statistical analysis was conducted.
100 male C57BL/6 mice (9-week aged) were randomly divided into 10 groups to evaluate analgesic activity of two compounds in the formalin pain model in mice, and each group had 10 mice. […] Before the start of experiment, the mice were allowed to adapt experimental environment for 72 h with free feeding and drinking water.
After administration, the mice were placed in a transparent, ventilated plexiglass cylinder, and 1 h later, 20 μl of 4% formalin solution was injected into the left hind plantar of mice in each group by micro-injector, and paw pain response in mice was recorded in real time by a mini-camera. The time length of licking left paw was used as an indicator of pain response, licking time in 0-10 min (phase I) and 10-60 min (phase II) was observed and recorded, and the statistical analysis was conducted. The half effective dose (EDso) of three compounds was calculated: EDso referred to the dose of the drug that decreased licking time by half as compared with the blank control group. The less the ED50 value was, the lower the effective analgesic dose of the compound was and the stronger the analgesic effect was.

The next assay has as its system ICR mice. Kind of assay: acetic acid writhing pain model in mice. The format is in vivo. The note with it: for frequency of writhing response within 30 min: acetic acid 1 h after administration. The method, then: Male ICR mice, weighed 22-25 g, were fasted but allowed to drink water freely for 2 h before administration. All ICR mice were weighed and grouped randomly, and the number of animals in each group was greater than 10. […] […] The drug was administrated intragastrically based on the weight of mice. 1.5% acetic acid solution (0.1 ml/10 g) was injected intraperitoneally 1 hour after administration, and the frequency of visceral pain in each group of mice within 30 min was observed. When concave abdomen, stretched trunk and hind paw, and high buttocks appeared, one number point was recorded. Finally, the number of appearance of the above phenomenon was counted within 30 minutes.

For the compound `CNCC[C@H](Oc1cccc2ccccc12)c1cccs1` [Duloxetine (S configuration), Duloxetine, reference compound], the figures for the IC50 in the assay on HepG2 cell and with SH-SY5Y were 33 µM and 28 µM, respectively. The “paw licking time” value in the assay with C57BL/6 mice (1 mg/kg intraperitoneal) is reported as 259.97 ± 64.44 s; in the assay with C57BL/6 mice (5 mg/kg intraperitoneal), 230.49 ± 41.31 s; with C57BL/6 mice (10 mg/kg intraperitoneal), 162.83 ± 36.27 s; in the assay with C57BL/6 mice (20 mg/kg intraperitoneal), 72.27 ± 17.29 s. In addition, the “analgesic effect (EDso) in phase II pain” value in the assay on C57BL/6 mice (phase II (10-60 min)) was determined as 8.00 mg/kg. Besides, the “frequency of writhing response within 30 min” value with ICR mice (10 mg/kg intragastric) is recorded as 27 times; in the assay on ICR mice (20 mg/kg intragastric), 21 times.

Take `CNCC[C@H](Oc1cccc2ccoc12)c1cccs1` [IC-1, (S)-3-(Benzofuran-7-yloxy)-N-methyl-3-(thiophen-2-yl)propan-1-amine]: the half-maximal inhibitory concentration (IC50) in the assay with HepG2 cell and in the assay with SH-SY5Y was 60 to 120 µM throughout. In addition, the “paw licking time” value in the assay with C57BL/6 mice (0.1 mg/kg intraperitoneal) was 339.35 ± 27.90 s; in the assay with C57BL/6 mice (0.5 mg/kg intraperitoneal), 368.16 ± 44.46 s; in the assay on C57BL/6 mice (1 mg/kg intraperitoneal) it was 171.57 ± 39.69 s; in the assay with C57BL/6 mice (5 mg/kg intraperitoneal), 158.02 ± 25.18 s; with C57BL/6 mice (10 mg/kg intraperitoneal), 35.68 ± 11.77 s. Further, in the assay with C57BL/6 mice (1 mg/kg, phase II (10-60 min)), the “decrease of paw licking time as compared with blank vehicle” value is listed as “more than 50%”. Further, the “analgesic effect (EDso) in phase II pain” value in the assay with C57BL/6 mice (phase II (10-60 min)) is given as 2.22 mg/kg. Further, the “frequency of writhing response within 30 min” value is 20 times in the assay on ICR mice (5 mg/kg intragastric) and 17 times in the assay with ICR mice (10 mg/kg intragastric). The “half effective dose (EDso)” value in the assay on ICR mice (acetic acid writhing, intragastric) is listed as “less than 5 mg/kg”.

As to `CNCC[C@H](Oc1cccc2c1CCC2)c1cccs1` [IC-10], the half-maximal inhibitory concentration (IC50) with HepG2 cell and in the assay with SH-SY5Y was 60 to 120 µM throughout. The “analgesic activity, licking time” value with C57BL/6 mice (20 mg/kg intraperitoneal, phase I (0-10 min) and phase II (10-60 min), compared with saline group) is “almost completely inhibited licking paw behavior caused by pain”.
